{"source": "patent EP2012792B1", "about": "“USE OF A COMPOUND INDUCING AN INCREASE OF FREE SEROTONIN RATE IN THE BODY, FOR PREPARING A MEDICINE FOR TREATING SKELETAL MUSCLE DEGENERATION OF GENETIC ORIGIN” (Association Française contre les Myopathies, priority 2006, dated 2007)", "key": {"[1]": {"tested_on": "souche de nématode dépourvue de dystrophine", "assay": "Muscle degeneration and paralysis test in dystrophin-deficient nematode strain (degenerative myopathy model)", "type": "in vivo, Caenorhabditis elegans", "settings": "7 days of culture at 15°C; for Diminution de la dégénérescence en %: untreated = 0; for Pourcentage d'animaux paralysés à J7: untreated = 100", "protocol": "Les composés ont été testés sur une souche de nématode dépourvue de dystrophine (Gieseler et al., Current Biology, 2000, vol. 10, p1092-1097) et (Ségalat, Neuromuscular Disorders, 2002, Suppl: S105-9). Cette souche est utilisée comme modèle de myopathie dégénérative. Dans cette souche, jusqu'à 30% des cellules musculaires servant à la locomotion (muscles longitudinaux) dégénèrent à l'état adulte (7 jours à 15°C), ce qui se traduit par une paralysie progressive des animaux.\nLes composés sont administrés par mélange avec la gélose sur laquelle sont cultivés les animaux. Ils pénètrent par diffusion à travers la cuticule des animaux.\nL'effet des composés sur la dégénérescence musculaire est évalué par 1) l'observation du phénotype des animaux (paralysie), et 2) par l'examen cytologique de la dégénérescence musculaire au moyen de marqueurs musculaires : rodamine-phalloidine et anticorps anti-myosine. Cet examen permet de compter le nombre de cellules musculaires en dégénérescence ou mortes (Gieseler et al., 2000, supra)."}, "[2]": {"tested_on": "souris mdx (génotype C57/BL6 mdx5cv)", "assay": "mdx mouse: number of centronucleated fibres (test of Shavlakadze et al.)", "type": "in vivo", "settings": "p<0,1%", "protocol": "(§1) J. Pathol. […] 2002 Aug; 444(5), 634-43. […] 2000 Sep; 11(9), 725-8.\n(§2) Elles sont testées à 6 semaines.\n(§3) Il a également été démontré que la Fluoxetine chlorhydrate (11 mg/kg/jour), réduit le nombre de fibres centronucléées de 20% environ (p<0,1%)."}, "[3]": {"tested_on": "protéolyse du muscle de C. elegans", "assay": "Muscle proteolysis model of C. elegans representative of cachexia (protocol of Zdinak et al.)", "type": "in vivo", "settings": "relative to control; concentration not given", "from_the_text": "c) Concernant l'action sur la cachexie, il a également pu être montré sur un modèle de protéolyse du muscle de C. elegans representatif de la cachexie, et en utilisant le protocole décrit par Zdinak et al., dans Transgene-coded chimeric proteins as reporters of intracellular proteolysis: starvation-induced catabolism of a lacZ fusion protein in muscle cells of Caenorhabditis elegans, J Cell Biochem. 1997 Oct 1;67(1):143-53 que la sérotonine et l'imipramine chlorhydrate réduisent fortement cette protéolyse (20% de la protéolyse du témoin dans les 2 cas)."}, "[4]": {"tested_on": "souris mdx (génotype C57/BL6 mdx5cv)", "assay": "mdx mouse: histology, fibre size dispersion", "type": "in vivo", "settings": "40mg/jour/kg oral in food, treated from 2 to 6 weeks of age, tested at 6 weeks; versus untreated animals", "from_the_text": "as §1, §2"}, "[5]": {"tested_on": "souris mdx (génotype C57/BL6 mdx5cv)", "settings": "40mg/jour/kg oral in food, treated from 2 to 6 weeks of age", "from_the_text": "Les tests effectués chez la souris sont de plusieurs types : histologiques, fonctionnels sur l'animal entier, et fonctionnels sur muscles disséqués. Les tests sont effectués sur la souris mdx (génotype C57/BL6 mdx5cv), modèle murin de myopathie dégénérative. Ces tests sont notamment détaillés dans les publications suivantes auxquelles on pourra se référer : • De Luca A, et al. Am. J. Pathol. 2005 Feb; 166(2), 477-89. • Divet A, et al. Pflugers Arch. 2002 Aug; 444(5), 634-43. Epub 2002 Jul 10. • Rafael JA, et al. Mamm Genome. 2000 Sep; 11(9), 725-8.\nLes composés sont administrés oralement aux souris dans leur nourriture. Les souris sont traitées de l'âge de 2 semaines à 6 semaines. Elles sont testées à 6 semaines."}, "[6]": {"tested_on": "souris mdx (génotype C57/BL6 mdx5cv)", "assay": "mdx mouse: diaphragm necrosis (test of Raymackers et al.)", "type": "in vivo", "settings": "15 mg/kg/jour oral in food; p<5%", "protocol": "as §1, §2, §3"}, "[7]": {"settings": "0,1 mg/ml (0,3 mM) in culture agar"}, "[8]": {"settings": "0,05 mg/ml (0,15 mM) in culture agar"}, "[9]": {"settings": "4 mg/ml (10 mM) in culture agar"}, "[10]": {"settings": "0,1 mg/ml (0,2 mM) in culture agar"}}, "note": "Counter-ions that a name gives are not always drawn.", "data": [{"compound": "CN(C)CCC=C1c2ccccc2CCc2ccccc21", "note": "[Amytriptyline chlorhydrate, amitriptyline]", "values": [{"measurement": "Diminution de la dégénérescence en %", "setting": "[1]; [7]", "result": 61, "unit": "%"}, {"measurement": "Pourcentage d'animaux paralysés à J7", "setting": "[1]; [7]", "result": 52, "unit": "%"}]}, {"compound": "CNCCCN1c2ccccc2CCc2ccccc21", "note": "[Desipramine chlorhydrate, désipramine]", "values": [{"measurement": "Diminution de la dégénérescence en %", "setting": "[1]; [7]", "result": 58, "unit": "%"}, {"measurement": "Pourcentage d'animaux paralysés à J7", "setting": "[1]; [7]", "result": 58, "unit": "%"}]}, {"compound": "CNCCC(Oc1ccc(C(F)(F)F)cc1)c1ccccc1", "note": "(stereo not shown) [Fluoxetine chlorhydrate, fluoxétine]", "values": [{"measurement": "réduction du nombre de fibres centronucléées", "setting": "[2]; 11 mg/kg/jour oral in food", "result": "~20", "unit": "%"}, {"measurement": "Diminution de la dégénérescence en %", "setting": "[1]; [8]", "result": 51, "unit": "%"}, {"measurement": "Pourcentage d'animaux paralysés à J7", "setting": "[1]; [8]", "result": 60, "unit": "%"}]}, {"compound": "CN(C)CCCN1c2ccccc2CCc2ccccc21", "note": "[Imipramine chlorhydrate, imipramine]", "values": [{"measurement": "protéolyse", "setting": "[3]", "result": "20 % de la protéolyse du témoin"}, {"measurement": "Réduction de la dispersion de taille des fibres (marqueur de dégénérescence)", "setting": "[4]", "result": 26, "unit": "%"}, {"measurement": "Augmentation de la tension développée par le muscle EDL sur animaux vivants", "setting": "[5]; tested at 6 weeks", "result": 20, "unit": "%"}, {"measurement": "Augmentation du score avec le test d'agrippement", "setting": "[5]; tested at 6 weeks", "result": 48, "unit": "%"}, {"measurement": "Augmentation de la tension maximale développée par le muscle isolé", "setting": "[5]; triton-skinned fibres", "result": 50, "unit": "%"}, {"measurement": "Diminution de la dégénérescence en %", "setting": "[1]; [7]", "result": 37, "unit": "%"}, {"measurement": "Pourcentage d'animaux paralysés à J7", "setting": "[1]; [7]", "result": 65, "unit": "%"}]}, {"compound": "NCCc1c[nH]c2ccc(O)cc12", "note": "[Sérotonine, 5-hydrotryptamine]", "values": [{"measurement": "protéolyse", "setting": "[3]", "result": "20 % de la protéolyse du témoin"}, {"measurement": "Diminution de la dégénérescence en %", "setting": "[1]; [9]", "result": 73, "unit": "%"}, {"measurement": "Pourcentage d'animaux paralysés à J7", "setting": "[1]; [9]", "result": 41, "unit": "%"}, {"measurement": "dégénérescence musculaire", "setting": "[1]; result in words", "result": "diminue également la dégénérescence musculaire"}]}, {"compound": "CC(CN(C)C)CN1c2ccccc2CCc2ccccc21", "note": "(stereo not shown) [Trimipramine maleate, trimipramine]", "values": [{"measurement": "nécrose du diaphragme", "setting": "[6]", "result": "réduit la nécrose du diaphragme"}, {"measurement": "nombre de fibres centronucléées", "setting": "[2]; 15 mg/kg/jour oral in food, result in words", "result": "réduit"}, {"measurement": "Diminution de la dégénérescence en %", "setting": "[1]; [10]", "result": 53, "unit": "%"}, {"measurement": "Pourcentage d'animaux paralysés à J7", "setting": "[1]; [10]", "result": 60, "unit": "%"}]}]}
